How the values were obtained:
Format in all cases: biochemical
[1] = target: T1, β5 subunit of the yeast 20S proteasome (Saccharomyces cerevisiae, UniProt P30656); assay: IC50 determination with purified yeast 20S proteasome core particle (yCP), chymotrypsin-like activity, fluorogenic AMC substrate; conditions: yCP 0.05 mg/mL, 100 mM Tris-HCl pH 7.5; 45 min incubation at room temperature; Suc-Leu-Leu-Val-Tyr-AMC 200 µM (ChT-L); triplicate
T1 construct: purified yeast 20S proteasome core particle (yCP); host or cells: yeast
Description: (§1) The concentration of purified yCP was determined spectrophotometrically at 280 nm. yCP (final concentration: 0.05 mg/mL in 100 mM Tris-HCI, pH 7.5) was mixed with DMSO as a control or serial dilutions of the compound 1 in DMSO, thereby not surpassing a final concentration of 10% (v/v) DMSO. After an incubation time of 45 min at room temperature, fluorogenic substrates Boc-Leu-Arg-Arg-AMC, Z-Leu-Leu-Glu-AMC, and Suc-Leu-Leu-Val-Tyr-AMC (final concentration of 200 µM) were added to measure the residual activity of […], and chymotrypsin-like (ChT-L, β5 subunit), respectively. The assay mixture was incubated for another 60 min at RT and afterward diluted 1:10 in 20 mM Tris-HCI, pH 7.5. The AMC-molecules released by hydrolysis were measured in triplicate with a Varian Cary Eclipse Fluorescence Spectrophotometer (Agilent Technologies) at λexc = 360 nm and λem = 460 nm. Relative fluorescence units were normalized to the DMSO treated control. The calculated residual activities were plotted against the logarithm of the applied inhibitor concentration and fitted with GraphPad Prism 9. Half maximum inhibitory concentration (IC50) values were deduced from the fitted data.

[2] = target: T2, β1 subunit of the yeast 20S proteasome (Saccharomyces cerevisiae, UniProt P38624); assay: IC50 determination with purified yeast 20S proteasome core particle (yCP), caspase-like activity, fluorogenic AMC substrate; conditions: yCP 0.05 mg/mL, 100 mM Tris-HCl pH 7.5; 45 min incubation at room temperature; fluorogenic substrate 200 µM, caspase-like (C-L); read-out: binding affinities for β1
T2 construct: purified yeast 20S proteasome core particle (yCP); host or cells: yeast
Description: as §1

[3] = target: T3, β2 subunit of the yeast 20S proteasome (Saccharomyces cerevisiae, UniProt P25043); assay: IC50 determination with purified yeast 20S proteasome core particle (yCP), trypsin-like activity, fluorogenic AMC substrate; conditions: yCP 0.05 mg/mL, 100 mM Tris-HCl pH 7.5; 45 min incubation at room temperature; fluorogenic substrate 200 µM, trypsin-like (T-L); read-out: binding affinities for β2
T3 construct: purified yeast 20S proteasome core particle (yCP); host or cells: yeast
Description: as §1

Work on `CC(C)C1C(=O)OC1C(=O)O` (stereo not drawn) [Compound 1, 3-isopropyl-4-oxo-2-oxetanecarboxylic acid] yielded an IC50 [1] of 6.2 µM, an IC50 [2] of 625 µM and an IC50 [3] of 60 µM.

— patent publication EP4180035A1, “NOVEL BETA-LACTONE INHIBITORS OF HYDROLYTIC ENZYMES AND THEIR MEDICAL AND NON MEDICAL USES” (Max-Planck-Gesellschaft zur Förderung der Wissenschaften …, priority 2021, dated 2023)
